Laboratory results published in US9796700B2 (Celgene CAR LLC, priority 2013, dated 2017).
pIC50: −log10 of the molar value.

Key:
[1] = target: MEK1 activated ERK1 (Homo sapiens (Human), UniProt P27361); experiment: Omnia continuous-read kinase assay for potency against MEK1 activated ERK1; type: biochemical; conditions: MEK1 activated ERK1, WT, ATP at KM
Outline: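 Apparent IC50 came from initial reaction slopes (RFU vs time) plotted against log inhibitor with a variable-slope fit. Reactions were started with ERK1 (4 nM final) added to 50 μM ATP, roughly at its appKM, and 10 μM Sox-conjugated ST17 peptide in 20 mM Tris pH 7.5, 5 mM MgCl2. Fluorescence was monitored every 71 seconds.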

[2] = target: Erk1 (Homo sapiens (Human), UniProt P27361); experiment: Protein Mass Modification Assay (intact protein MALDI); type: binding
Outline: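 Human Erk1 was incubated 60 min at room temperature with a 10-fold molar excess of compound, then analysed as intact protein by MALDI with sinapinic acid matrix. The centroid mass shift versus untreated protein was divided by compound molecular weight to give percent modified protein.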

MEK1 activated ERK1, sequence (P27361 whole entry): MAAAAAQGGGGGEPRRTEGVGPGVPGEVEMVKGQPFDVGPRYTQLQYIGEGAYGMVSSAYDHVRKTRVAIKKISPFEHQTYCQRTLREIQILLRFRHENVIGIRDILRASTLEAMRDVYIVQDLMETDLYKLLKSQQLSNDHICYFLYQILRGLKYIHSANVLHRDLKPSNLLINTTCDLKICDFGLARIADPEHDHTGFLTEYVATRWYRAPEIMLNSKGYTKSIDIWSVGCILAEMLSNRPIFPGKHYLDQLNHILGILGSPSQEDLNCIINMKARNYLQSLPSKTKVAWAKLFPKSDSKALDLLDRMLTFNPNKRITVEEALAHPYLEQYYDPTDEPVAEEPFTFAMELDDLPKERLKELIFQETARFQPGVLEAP
Erk1, sequence (P27361 whole entry, looked up): as the sequence (P27361 whole entry) above

What does the source list for C=CC(=O)Nc1cc(OC)ccc1Nc1nc(Nc2ccc(N3CCNCC3)cc2OC)ncc1Cl [Compound I-162, N-(2-((5-chloro-2-((2-methoxy-4-(piperazin-1-yl)phenyl)amino)pyrimidin-4-yl)amino)-5-methoxyphenyl)acrylamide]?
pIC50 [1]: < 6.00; ERK1 Mass Mod (%) [2]: E (provided a mass modification of ≧70%)

What does the source list for C=CC(=O)Nc1cc(OC)ccc1Nc1nc(Nc2ccc(N3CC[C@H](O)C3)cc2C#N)ncc1Cl [Compound I-165, (S)—N-(2-((5-chloro-2-((2-cyano-4-(3-hydroxypyrrolidin-1-yl)phenyl)amino)pyrimidin-4-yl)amino)-5-methoxyphenyl)acrylamide]?
pIC50 [1]: < 6.00; ERK1 Mass Mod (%) [2]: F (provided a mass modification of 31-69%)

C=CC(=O)Nc1ccccc1Nc1nc(Nc2ccc(N(CCNC(=O)OC(C)(C)C)C(C)=O)cc2C(F)(F)F)ncc1Cl [Compound I-170, tert-butyl (2-(N-(4-((4-((2-acrylamidophenyl)amino)-5-chloropyrimidin-2-yl)amino)-3-(trifluoromethyl)phenyl)acetamido)ethyl)carbamate] was tested. Which pIC50 [1] did it give?
Its pIC50 is less than 6.00.

What about the “ERK1 Mass Mod (%)” value [2] of the same compound?
Its value is “E (provided a mass modification of ≧70%)”.

What does the source list for C=CC(=O)Nc1ccccc1Nc1nc(Nc2ccc(N3CCC[C@@H]3CO)cc2C#N)ncc1Cl [Compound I-171, (R)—N-(2-((5-chloro-2-((2-cyano-4-(2-(hydroxymethyl)pyrrolidin-1-yl)phenyl)amino)pyrimidin-4-yl)amino)phenyl)acrylamide]?
pIC50 [1]: < 6.00; ERK1 Mass Mod (%) [2]: E (provided a mass modification of ≧70%)

What does the source list for C=CC(=O)Nc1ccccc1Nc1nc(Nc2ccc(N3CCC[C@H]3CO)cc2C#N)ncc1Cl [Compound I-172, (S)—N-(2-((5-chloro-2-((2-cyano-4-(2-(hydroxymethyl)pyrrolidin-1-yl)phenyl)amino)pyrimidin-4-yl)amino)phenyl)acrylamide]?
pIC50 [1]: < 6.00; ERK1 Mass Mod (%) [2]: F (provided a mass modification of 31-69%)

With C=CC(=O)Nc1ccccc1Nc1nc(Nc2ccc(OCCOC)cc2OC)ncc1Cl [Compound I-182, N-(2-((5-chloro-2-((2-methoxy-4-(2-methoxyethoxy)phenyl)amino)pyrimidin-4-yl)amino)phenyl)acrylamide] as the compound, how does the pIC50 [1] read?
The pIC50 was less than 6.00.

What about the “ERK1 Mass Mod (%)” value [2] of the same compound?
The value was “E (provided a mass modification of ≧70%)”.

With C=CC(=O)Nc1ccccc1Nc1nc(Nc2ccc(NC(=O)OC)cc2OC)ncc1Cl [Compound I-184, methyl (4-((4-((2-acrylamidophenyl)amino)-5-chloropyrimidin-2-yl)amino)-3-methoxyphenyl)carbamate] as the compound, how does the pIC50 [1] read?
Its pIC50 is less than 6.00.

What about the “ERK1 Mass Mod (%)” value [2] of the same compound?
Its value is “E (provided a mass modification of ≧70%)”.

With C=CC(=O)NCc1ccccc1Nc1nc(Nc2cc(C(N)=O)ccc2C)ncc1Cl [Compound I-189, 3-((4-((2-(acrylamidomethyl)phenyl)amino)-5-chloropyrimidin-2-yl)amino)-4-methylbenzamide] as the compound, how does the pIC50 [1] read?
The pIC50 was less than 6.00.

What about the “ERK1 Mass Mod (%)” value [2] of the same compound?
The value was “G (proived a mass modification ≦30%)”.

How did the pIC50 [1] turn out when C=CC(=O)N[C@@H]1CCCC[C@H]1Nc1nc(Nc2cc(C(=O)NOC)ccc2C)ncc1Cl [Compound I-190, 3-((4-(((1R,2R)-2-acrylamidocyclohexyl)amino)-5-chloropyrimidin-2-yl)amino)-N-methoxy-4-methylbenzamide] was run?
The pIC50 was less than 6.00.

And the “ERK1 Mass Mod (%)” value [2]?
Its value is “F (provided a mass modification of 31-69%)”.

C=CC(=O)Nc1ccccc1Nc1nc(Nc2cc(C(=O)NOC)ccc2C)ncc1Cl [Compound I-191, 3-((4-((2-acrylamidophenyl)amino)-5-chloropyrimidin-2-yl)amino)-N-methoxy-4-methylbenzamide] was tested. Which pIC50 [1] did it give?
The pIC50 was greater than 7.00.

What about the “ERK1 Mass Mod (%)” value [2] of the same compound?
The value was “E (provided a mass modification of ≧70%)”.

How did the pIC50 [1] turn out when C=CC(=O)Nc1ccccc1Nc1nc(Nc2cc(C(N)=O)ccc2C#N)ncc1Cl [Compound I-192, 3-((4-((2-acrylamidophenyl)amino)-5-chloropyrimidin-2-yl)amino)-4-cyanobenzamide] was run?
The pIC50 was greater than 7.00.

And the “ERK1 Mass Mod (%)” value [2]?
The value was “E (provided a mass modification of ≧70%)”.

With C=CC(=O)Nc1ccccc1Nc1nc(Nc2cc(C(N)=O)ccc2CC)ncc1Cl [Compound I-193, 3-((4-((2-acrylamidophenyl)amino)-5-chloropyrimidin-2-yl)amino)-4-ethylbenzamide] as the compound, how does the pIC50 [1] read?
Its pIC50 is greater than 7.00.

What about the “ERK1 Mass Mod (%)” value [2] of the same compound?
The value was “E (provided a mass modification of ≧70%)”.

With C=CC(=O)N(C)c1ccccc1Nc1nc(Nc2cc(C(=O)NOC)ccc2C#N)ncc1Cl [Compound I-197, 3-((5-chloro-4-((2-(N-methylacrylamido)phenyl)amino)pyrimidin-2-yl)amino)-4-cyano-N-methoxybenzamide] as the compound, how does the pIC50 [1] read?
Its pIC50 is less than 6.00.

And the “ERK1 Mass Mod (%)” value [2]?
Its value is “E (provided a mass modification of ≧70%)”.

What does the source list for C=CC(=O)N[C@@H]1CCCC[C@@H]1Nc1nc(Nc2cc(C(N)=O)ccc2C)ncc1Cl [Compound I-199, 3-((4-(((1S,2R)-2-acrylamidocyclohexyl)amino)-5-chloropyrimidin-2-yl)amino)-4-methylbenzamide]?
pIC50 [1]: < 6.00; ERK1 Mass Mod (%) [2]: G (proived a mass modification ≦30%)

C=CC(=O)N[C@H]1CCCC[C@H]1Nc1nc(Nc2cc(C(N)=O)ccc2C)ncc1Cl [Compound I-200, 3-((4-(((1R,2S)-2-acrylamidocyclohexyl)amino)-5-chloropyrimidin-2-yl)amino)-4-methylbenzamide] was tested. Which pIC50 [1] did it give?
Its pIC50 is less than 6.00.

What about the “ERK1 Mass Mod (%)” value [2] of the same compound?
Its value is “G (proived a mass modification ≦30%)”.

What does the source list for C=CC(=O)N[C@H]1CCCC[C@@H]1Nc1nc(Nc2cc(C(N)=O)ccc2C)ncc1Cl [Compound I-201, 3-((4-(((1S,2S)-2-acrylamidocyclohexyl)amino)-5-chloropyrimidin-2-yl)amino)-4-methylbenzamide]?
pIC50 [1]: < 6.00; ERK1 Mass Mod (%) [2]: G (proived a mass modification ≦30%)

What does the source list for C=CC(=O)N(C)c1ccccc1Nc1nc(Nc2cc(C(=O)NOCCO)ccc2C#N)ncc1Cl [Compound I-204, 3-((5-chloro-4-((2-(N-methylacrylamido)phenyl)amino)pyrimidin-2-yl)amino)-4-cyano-N-(2-hydroxyethoxy)benzamide]?
pIC50 [1]: < 6.00; ERK1 Mass Mod (%) [2]: F (provided a mass modification of 31-69%)

How did the pIC50 [1] turn out when C=CC(=O)Nc1cc(F)ccc1Nc1nc(Nc2cc(C(N)=O)ccc2OC)ncc1Cl [Compound I-208, 3-((4-((2-acrylamido-4-fluorophenyl)amino)-5-chloropyrimidin-2-yl)amino)-4-methoxybenzamide] was run?
Its pIC50 is greater than 7.00.

And the “ERK1 Mass Mod (%)” value [2]?
Its value is “E (provided a mass modification of ≧70%)”.

Which results are given for C=CC(=O)N[C@H]1CCC[C@@H]1Nc1nc(Nc2cc(C(N)=O)ccc2C)ncc1Cl [Compound I-215, 3-((4-(((1 S,2S)-2-acrylamidocyclopentyl)amino)-5-chloropyrimidin-2-yl)amino)-4-methylbenzamide]?
pIC50 [1]: < 6.00; ERK1 Mass Mod (%) [2]: G (proived a mass modification ≦30%)

Which results are given for CC(C)=CC(=O)c1ccccc1Nc1nc(Nc2cc(C(N)=O)ccc2C)ncc1Cl [Compound I-216, 3-((5-chloro-4-((2-(3-methylbut-2-enoyl)phenyl)amino)pyrimidin-2-yl)amino)-4-methylbenzamide]?
pIC50 [1]: < 6.00; ERK1 Mass Mod (%) [2]: G (proived a mass modification ≦30%)

What does the source list for C=C(C)C(=O)Nc1ccccc1Nc1nc(Nc2cc(C(N)=O)ccc2C)ncc1Cl [Compound I-217, 3-((5-chloro-4-((2-methacrylamidophenyl)amino)pyrimidin-2-yl)amino)-4-methylbenzamide]?
pIC50 [1]: < 6.00; ERK1 Mass Mod (%) [2]: G (proived a mass modification ≦30%)
